Data set [1] in a line: in vitro. The following applies: both, SD, rat.
Experimental: Peptides of interest (20 μM) were incubated with pre-warmed rat plasma (SD rat, mixed gender pooled, EDTA, filtered through 0.22 μm, BioreclamationIVT) at 37° C. […] Quenched samples were stored at 4° C. until the end of the experiment and centrifuged at 4,000 rpm for 10 minutes. The supernatant were diluted 1:1 with deionized water and analyzed using LC-MS. Percentage remaining at each time point was calculated based on the peak area ratio (analyte over internal standard) relative to the initial level at time zero. Half-lives were calculated by fitting to a first-order exponential decay equation using GraphPad.
Data set [2] is described as follows: in vitro. The settings on record: cynomolgus monkey, 20% fecal homogenate (supernatant), anaerobic, pH 6.8.
A short description of data set [3]: in vitro. The following applies: human, 20% fecal homogenate (supernatant), anaerobic, pH 6.8.
Data set [4] deals with T1, IL-23R (Homo sapiens, UniProt Q5VWK5).
T1 sequence (Q5VWK5 24-629): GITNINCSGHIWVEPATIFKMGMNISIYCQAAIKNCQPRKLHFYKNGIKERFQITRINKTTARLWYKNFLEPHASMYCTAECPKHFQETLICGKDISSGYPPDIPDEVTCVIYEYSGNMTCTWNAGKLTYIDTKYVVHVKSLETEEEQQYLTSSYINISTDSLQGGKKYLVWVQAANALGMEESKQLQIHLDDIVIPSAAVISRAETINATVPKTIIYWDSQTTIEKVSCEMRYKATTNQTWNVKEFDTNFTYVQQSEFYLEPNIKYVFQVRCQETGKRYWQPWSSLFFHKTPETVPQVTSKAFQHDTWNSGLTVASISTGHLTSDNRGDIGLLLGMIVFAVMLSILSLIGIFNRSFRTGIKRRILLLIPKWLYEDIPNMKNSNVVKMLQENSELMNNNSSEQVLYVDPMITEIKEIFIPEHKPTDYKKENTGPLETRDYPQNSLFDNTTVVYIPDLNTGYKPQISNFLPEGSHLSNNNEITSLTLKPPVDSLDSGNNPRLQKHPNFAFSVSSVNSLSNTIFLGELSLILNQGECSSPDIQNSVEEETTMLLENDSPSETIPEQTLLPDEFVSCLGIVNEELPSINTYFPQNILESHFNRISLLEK
Briefly: DB cells IL23R pSTAT3 cell assay (pStat3 HTRF). Type of data set: cell-based. The settings on record: Table E3; DB cells, IL-23 0.5 nM, 30 minutes at 37° C.; read-out: pStat3 HTRF (IC50). The procedure, abridged:
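HTRF readout of lysate pSTAT3 (Tyr705) after two-plate processing. Peptide dilution series co-incubated with IL-23 (0.5 nM final) on 5×10E5 IL-23R-expressing DB cells per well, 30 min, 37 °C.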
In general terms: TR-FRET usually uses a lanthanide donor and a delayed reading to cut background.

For data set [5], the system named is NK cells. The experiment in a line: NK cell based assay (IL-23/IL-18-induced IFNγ, Quantikine ELISA). The settings on record: human primary NK cells, IL-23 at EC50 to EC75 + IL-18 10 ng/mL, IFNγ after 20 to 24 hours. Here is the method:
killer (NK) cells, purified from human peripheral blood of healthy donors by negative selection (Miltenyi Biotech, Cat #130-092-657), were cultured in complete media (RPMI 1640 containing […], L-glutamine and penicillin-streptomycin) in the presence of IL-2 (RnD, Cat #202-IL-010/CF) at 25 ng/mL. After 7 days, cells were centrifuged, and resuspended in complete media at IE6 cells/mL. […] After 20 to 24 hours, IFNγ in the supernatant was quantified using Quantikine ELISA (RnD, Cat #DIF50).
(An ELISA detects its analyte on a solid surface through an enzyme-linked reagent.)

Results on twelve compounds are retold here after patent publication US20260116921A1, “PEPTIDE INHIBITORS OF INTERLEUKIN-23 RECEPTOR AND THEIR USE TO TREAT INFLAMMATORY DISEASES” (priority 2018, published 2026).

Bridge positions count the residues as written; N and C are the ends. Square brackets hold non-standard residues; d marks the D form. Peptide text beside a SMILES is read from it. Trp(7-Me) = Cc1cccc2c(C[C@H](N)C(=O)O)c[nH]c12; 2Nal = N[C@@H](Cc1ccc2ccccc2c1)C(=O)O; AEF = NCCOc1ccc(C[C@H](N)C(=O)O)cc1; Cit = NC(=O)NCCC[C@H](N)C(=O)O; αMeL = CC(C)C[C@](C)(N)C(=O)O; Pen = CC(C)(S)[C@H](N)C(=O)O; αMeK = C[C@](N)(CCCCN)C(=O)O; βAla = NCCC(=O)O

For the compound `CC(=O)NCCCC[C@H](NC(=O)[C@](C)(CCCCN)NC(=O)[C@H](Cc1ccc2ccccc2c1)NC(=O)[C@H](Cc1ccc(OCCN)cc1)NC(=O)[C@H]1NC(=O)[C@](C)(CC(C)C)NC(=O)[C@H](Cc2c[nH]c3c(C)cccc23)NC(=O)[C@H]([C@@H](C)O)NC(=O)[C@H](CC(N)=O)NC(=O)[C@@H](NC(C)=O)C(C)(C)SSC1(C)C)C(=O)N[C@@H](CC(N)=O)C(=O)NCCC(N)=O` [compound 235] (Ac-[Pen]NT[Trp(7-Me)][αMeL][Pen][AEF][2Nal][αMeK]K(Ac)N[βAla]-NH2; disulfide 1-6), the values for the half-life at 20 μM in data set [1] (plasma (EDTA)), in data set [2] and in data set [3] were 5 h, more than 24 h and more than 24 h, respectively. In addition, the IC50 in data set [4] was 1 to 10 nM; in data set [5], 11 to 100 nM.
As for `CC(=O)N[C@@H]1C(=O)N[C@@H](CC(N)=O)C(=O)N[C@@H]([C@@H](C)O)C(=O)N[C@@H](Cc2c[nH]c3c(C)cccc23)C(=O)N[C@@H](CCC(N)=O)C(=O)N[C@H](C(=O)N[C@@H](Cc2ccc(OCCN)cc2)C(=O)N[C@@H](Cc2ccc3ccccc3c2)C(=O)N[C@@](C)(CCCCN)C(=O)NC(C)(C)C(=O)N[C@@H](CC(N)=O)C(=O)NCCC(N)=O)C(C)(C)SSC1(C)C` [compound 236], the half-life at 20 μM in data set [1] (plasma (EDTA)) was more than 19.8 h; in data set [2], more than 24 h; in data set [3], more than 24 h. Moreover, the IC50 in data set [4] is 1 to 10 nM; in data set [5] it was less than 10 nM.
On to `CC(=O)NCCCC[C@H](NC(=O)[C@](C)(CC(C)C)NC(=O)[C@H](Cc1ccc2ccccc2c1)NC(=O)[C@H](Cc1ccc(OCCN)cc1)NC(=O)[C@H]1NC(=O)[C@H](CCC(N)=O)NC(=O)[C@H](Cc2c[nH]c3c(C)cccc23)NC(=O)[C@H]([C@@H](C)O)NC(=O)[C@H](CC(N)=O)NC(=O)[C@@H](NC(C)=O)C(C)(C)SSC1(C)C)C(=O)N[C@H](C(=O)NCCC(N)=O)[C@@H](C)O` [compound 217], for which the values for the half-life at 20 μM in data set [1] (plasma (EDTA)), in data set [2] and in data set [3] were 2 h, more than 24 h and more than 24 h, respectively. Besides, the IC50 in data set [4] is 1 to 10 nM; in data set [5], 11 to 100 nM.
Take `CC(=O)NCCCC[C@H](NC(=O)[C@](C)(CC(C)C)NC(=O)[C@H](Cc1ccc2ccccc2c1)NC(=O)[C@H](Cc1ccc(OCCN)cc1)NC(=O)[C@H]1NC(=O)[C@H](CCC(N)=O)NC(=O)[C@H](Cc2c[nH]c3c(C)cccc23)NC(=O)[C@H]([C@@H](C)O)NC(=O)[C@H](CC(N)=O)NC(=O)[C@@H](NC(C)=O)C(C)(C)SSC1(C)C)C(=O)NCCC(=O)NCCC(N)=O` [compound 226]: the half-life at 20 μM in data set [1] (plasma (EDTA)) was 8 h; in data set [2], more than 24 h; in data set [3], more than 24 h. Further, the IC50 in data set [4] is 10 to 100 nM; in data set [5], less than 10 nM.
Take `CC(=O)NCCCC[C@@H]1NC(=O)[C@H](Cc2c[nH]c3c(C)cccc23)NC(=O)[C@H]([C@@H](C)O)NC(=O)[C@H](CC(N)=O)NC(=O)[C@@H](NC(C)=O)C(C)(C)SSC(C)(C)[C@@H](C(=O)N[C@@H](Cc2ccc(OCCN)cc2)C(=O)N[C@@H](Cc2ccc3ccccc3c2)C(=O)N[C@@](C)(CCCCN)C(=O)N[C@@H](CCCCNC(C)=O)C(=O)N[C@@H](CC(N)=O)C(=O)NCCC(N)=O)NC1=O` [compound 242]: the values for the half-life at 20 μM in data set [1] (plasma (EDTA)), in data set [2] and in data set [3] were more than 24 h, 8 h and more than 24 h, respectively. Also, the IC50 is less than 1 nM in data set [4] and less than 10 nM in data set [5].
Consider `CC(=O)N[C@@H]1C(=O)N[C@@H](CC(N)=O)C(=O)N[C@@H]([C@@H](C)O)C(=O)N[C@@H](Cc2c[nH]c3c(C)cccc23)C(=O)N[C@@H](CCC(N)=O)C(=O)N[C@H](C(=O)N[C@@H](Cc2ccc(OCCN)cc2)C(=O)N[C@@H](Cc2ccc3ccccc3c2)C(=O)N[C@@](C)(CCCCN)C(=O)N[C@@H](CCC(=O)O)C(=O)N[C@@H](CC(N)=O)C(=O)NCCC(N)=O)C(C)(C)SSC1(C)C` [compound 282], for which the half-life at 20 μM in data set [1] (plasma (EDTA)) is more than 24 h; in data set [2], 22 h; in data set [3] it was more than 24 h. Besides, the IC50 in data set [4] is 1 to 10 nM; in data set [5] it was less than 10 nM.
In the case of `CC(=O)NCCCC[C@H](NC(=O)[C@](C)(CC(C)C)NC(=O)[C@H](Cc1ccc2ccccc2c1)NC(=O)[C@H](Cc1ccc(OCCN)cc1)NC(=O)[C@H]1NC(=O)[C@H](CCC(N)=O)NC(=O)[C@H](Cc2c[nH]c3c(C)cccc23)NC(=O)[C@H]([C@@H](C)O)NC(=O)[C@H](CC(N)=O)NC(=O)[C@@H](NC(C)=O)C(C)(C)SSC1(C)C)C(=O)NCC(=O)NCCC(N)=O` [compound 205], the half-life at 20 μM in data set [1] (plasma (EDTA)) was 1 h; in data set [2], more than 24 h; in data set [3], more than 24 h. Moreover, the results for the concentration for half-maximal inhibition (IC50) in data set [4] and in data set [5] were 1 to 10 nM and 11 to 100 nM, respectively.
Turning to `CC(=O)NCCCC[C@H](NC(=O)[C@](C)(CC(C)C)NC(=O)[C@H](Cc1ccc2ccccc2c1)NC(=O)[C@H](Cc1ccc(OCCN)cc1)NC(=O)[C@H]1NC(=O)[C@H](CCC(N)=O)NC(=O)[C@H](Cc2c[nH]c3c(C)cccc23)NC(=O)[C@H]([C@@H](C)O)NC(=O)[C@H](CC(N)=O)NC(=O)[C@@H](NC(C)=O)C(C)(C)SSC1(C)C)C(=O)N(C)[C@@H](C)C(=O)NCCC(N)=O` [compound 223], the values for the half-life at 20 μM in data set [1] (plasma (EDTA)), in data set [2] and in data set [3] were 9 h, more than 24 h and more than 24 h, respectively. Besides, the IC50 was more than 100 nM in data set [4] and less than 10 nM in data set [5].
Consider `CC(=O)NCCCC[C@H](NC(=O)[C@](C)(CC(C)C)NC(=O)[C@H](Cc1ccc2ccccc2c1)NC(=O)[C@H](Cc1ccc(OCCN)cc1)NC(=O)[C@H]1NC(=O)[C@H](CCC(N)=O)NC(=O)[C@H](Cc2c[nH]c3c(C)cccc23)NC(=O)[C@H]([C@@H](C)O)NC(=O)[C@H](CC(N)=O)NC(=O)[C@@H](NC(C)=O)C(C)(C)SSC1(C)C)C(=O)N[C@@H](CC(C)C)C(=O)NCCC(N)=O` [compound 208], for which the half-life at 20 μM in data set [1] (plasma (EDTA)) is 2 h; in data set [2], more than 24 h; in data set [3] it was more than 24 h. For the same compound, the half-inhibitory concentration (IC50) was 1 to 10 nM in data set [4] and less than 10 nM in data set [5].
Turning to `CC(=O)NCCCC[C@@H]1NC(=O)[C@H](Cc2c[nH]c3c(C)cccc23)NC(=O)[C@H]([C@@H](C)O)NC(=O)[C@H](CC(N)=O)NC(=O)[C@@H](NC(C)=O)C(C)(C)SSC(C)(C)[C@@H](C(=O)N[C@@H](Cc2ccc(OCCN)cc2)C(=O)N[C@@H](Cc2ccc3ccccc3c2)C(=O)N[C@@](C)(CCCCN)C(=O)N[C@@H](CCCCNC(C)=O)C(=O)N[C@@H](Cc2c[nH]cn2)C(=O)NCCC(N)=O)NC1=O` [compound 272], the half-life at 20 μM in data set [1] (plasma (EDTA)), in data set [2] and in data set [3] was more than 24 h throughout. Moreover, the figures for the IC50 in data set [4] and in data set [5] were 1 to 10 nM and less than 10 nM, respectively.
As to `CC(=O)NCCCC[C@@H]1NC(=O)[C@H](Cc2c[nH]c3c(C)cccc23)NC(=O)[C@H]([C@@H](C)O)NC(=O)[C@H](CC(N)=O)NC(=O)[C@@H](NC(C)=O)C(C)(C)SSC(C)(C)[C@@H](C(=O)N[C@@H](Cc2ccc(OCCN)cc2)C(=O)N[C@@H](Cc2ccc3ccccc3c2)C(=O)N[C@@](C)(CCCCN)C(=O)N[C@@H](CCCCNC(C)=O)C(=O)N[C@@H](CC(N)=O)C(=O)N[C@H](CCCCN)C(N)=O)NC1=O` [SEQ ID No. 252, Ac-[Pen]-NT-[W(7-Me)]-[Lys(Ac)]-[Pen]-Phe[4-(2-aminoethoxy)]-[2-Nal]-[a-MeLys]-[Lys(Ac)]-N-[(D)Lys]-NH2], the half-life at 20 μM in data set [1] (plasma (EDTA, pooled)) is more than 24 h; in data set [2], more than 24 h; in data set [3] it was more than 24 h. Moreover, the values for the IC50 in data set [4] and in data set [5] were less than 1 nM and less than 10 nM, respectively.
In the case of `CC(=O)NCCCC[C@H](NC(=O)[C@](C)(CCCCN)NC(=O)[C@H](Cc1ccc2ccccc2c1)NC(=O)[C@H](Cc1ccc(OCCN)cc1)NC(=O)[C@H]1NC(=O)[C@H](CCC(N)=O)NC(=O)[C@H](Cc2c[nH]c3c(C)cccc23)NC(=O)[C@H]([C@@H](C)O)NC(=O)[C@H](CCCNC(N)=O)NC(=O)[C@@H](NC(C)=O)C(C)(C)SSC1(C)C)C(=O)N[C@@H](CC(N)=O)C(=O)NCCC(N)=O` [compound 238] (Ac-[Pen][Cit]T[Trp(7-Me)]Q[Pen][AEF][2Nal][αMeK]K(Ac)N[βAla]-NH2; disulfide 1-6), the half-life at 20 μM in data set [1] (plasma (EDTA)) was more than 24 h; in data set [2], 7 h; in data set [3] it was more than 24 h. Besides, the IC50 in data set [4] was 1 to 10 nM; in data set [5] it was less than 10 nM.

In general, half-life refers to how long it takes for the measured level to halve. Low readings indicate rapid decline, high ones slow decline. The IC50 is the concentration that gives 50% inhibition.
